Data set [1] relates to Vero cell lines (ATCC CCL-81). Put plainly: MTT proliferation assay, Vero cell lines (normal cells). The data set is classed as cell-based, African green monkey. To be noted: 48 h incubation, mean ± SD (n = 3). On the procedure: (§1) The cytotoxic activity of the synthesized compounds was evaluated against human cervix carcinoma (HeLa, ATCC CCL-2) cell lines, human estrogen-dependent breast carcinoma (MCF7, ATCC HTB-22) cell lines, and kidney of an African green monkey (Vero, ATCC CCL-81) as a normal cell lines using the methyl thiazolyl tetrazolium (MTT) method conducted according to the MTT assay protocol published by the American Type Culture Collection (ATCC). Cisplatin was used as a reference drug. Curcumin was also evaluated as a comparative compound on the tests against Vero and MCF7 cell lines, and doxorubicin was evaluated as an additional comparator on the test against MCF7 cell lines. The assay detects the reduction of yellow tetrazolium (MTT) by metabolically active cells to be purple formazan measured using spectrophotometry.
(§2) The cells lines were seeded into 96-well plates at a density of 5000 cells per well, replenished with growth media consisting of Dulbecco’s Modified Eagle’s medium (D-MEM) for Vero or Roswell Park Memorial Institute (RPMI) 1640 medium for MCF7 and HeLa, 5% Fetal Bovine Serum (FBS), 100 U/mL penicillin, and 100 μg/mL streptomycin. The cells were incubated at 37 °C in 5% CO2 for 24 h. Then, a series concentrations of the tested compounds (1.5, 3.1, 6.2, 12.5, 25.0, 50.0, 100.0, and 200.0 µg/mL) were added to each well of the plate and incubated for 48 h. After that, 10 μL fresh solution of MTT reagent was added to each well, and the plate was incubated in a CO2 incubator at 37 °C for 4 h. After the purple precipitate was obtained, the cells were dissolved in ethanol and their optical density was recorded at 595 nm. The experiment was performed in triplicate. Percent proliferation inhibition was calculated using the following formula: Viability cells inhibition (%)=100−[(At−Ab)/(Ac−Ab)] ×100%
(§3) At = absorption of test compound, Ab = absorption of blank, Ac = absorption of control.
(§4) The concentration of the synthesized compounds required to inhibit 50% of the growth of the cell lines (IC50 values) was calculated by analyzing the relationship between concentrations and percent (%) inhibitions using GraphPad Prism 7 version 7.00 for Windows, GraphPad Software, La Jolla, CA, USA, www.graphpad.com.
For orientation: Tetrazolium assays rely on reduction of a dye to a coloured formazan, in cell work by metabolically active cells.

The subject of data set [2] is HeLa cell lines (human cervix carcinoma, ATCC CCL-2). Put plainly: MTT proliferation assay, HeLa cell lines. The data set is classed as cell-based. As to conditions: 48 h incubation, mean ± SD (n = 3). The method, then: as §1, §2, §3, §4
The test system of data set [3] is MCF7 cell lines (human estrogen-dependent breast carcinoma, ATCC HTB-22). Put plainly: MTT proliferation assay, MCF7 cell lines. The data set is classed as cell-based. On the procedure: as §1, §2, §3, §4
Data set [4] has as its system HeLa cell lines (human cervix carcinoma, ATCC CCL-2). Also noted: method as in doi:10.1016/j.toxlet.2016.06.1915. To be noted: value of an earlier study; cited from earlier work.
The nature of data set [5]: Brine shrimp lethality test (BSLT). The data set is classed as in vivo. As to conditions: Artemia salina (brine shrimp) larvae, in vivo, other: compound diluted in the seawater holding the larvae; brine shrimp larvae, 24 h, triplicate. The method, then:
(§5) The assay was carried out according to the principle and protocol previously described by Meyer, with slight modification. Artemia salina L. eggs were inserted into a box containing seawater; the box was placed under UV lamp, and after 48 h the eggs hatched into larvae and ready for the test. The compounds (1a–1e, 2a–2e) were diluted in 10 mL seawater containing 10 larvae (1% DMSO (v/v)) until concentrations 20, 200, 500, and 1000 ppm were reached. After 24 h, the live and dead shrimp were counted. The mortality rate (%) was obtained by comparing the number of total dead larvae and the total number of larvae. The experiment was conducted in triplicate. The concentrations (dose)-response (% mortality) data were transformed into a straight line using a logit transformation, and the concentration required to kill 50% of the population (LC50 values) was derived from the best fit line obtained by linear regression analysis.

Data set [6] has as its system Artemia salina L. larvae. Put plainly: Brine shrimp lethality test (BSLT). As to conditions: Artemia salina, read-out: BSLT toxicity level. The data set is classed as in vivo. The method, then: as §5
[7] abbreviates: Homo sapiens, MCF7, 48 h incubation, mean ± SD (n = 3), read-out: IC50 (µM) MCF7.

≈ marks a conversion by molar mass, not a printed value. Read-outs that look alike come from different tables or passages of the source.

A word on the IC50: it is the point on the concentration scale where inhibition reaches its midpoint.

In the case of `N.N.[Cl][Pt][Cl]` [Cisplatin, reference compound], the IC50 was 84.7 ± 2.09 µM in data set [1]; 67.6 ± 2.04 µM in data set [2]; 12.8 ± 1.35 µM in data set [3] (48 h incubation, mean ± SD (n = 3), read-out: IC50 (µM) MCF7); 12.3 µM in data set [4].
In data set [5], `COc1cc(/C=C2\CCC/C(=C\c3ccccc3)C2=O)ccc1O` [Compound 1a, (2E,6E)-2-[(4-hydroxy-3-methoxyphenyl)methylidene]-6-(phenylmethylidene)cyclohexan-1-one] returned an LC50 at 24 h of 197 µM. For the same compound, the LC50 in data set [6] was in the range of 30 to 100 µg/mL (≈ 93.6 to 312 µM). The IC50 in data set [1] (Chlorocebus sabaeus, Vero) was 13.98 ± 0.04 µM; in data set [2] (Homo sapiens), over 100 µM; in data set [3] (setting [7]) it was over 100 µM.
`COc1ccc(/C=C2\CCC/C(=C\c3ccc(O)c(OC)c3)C2=O)cc1` [Compound 1b, (2E,6E)-2-[(4-hydroxy-3-methoxyphenyl)methylidene]-6-[(4-methoxyphenyl)methylidene] cyclohexan-1-one]: the LC50 at 24 h in data set [5] was found to be 323 µM. Also, the LC50 in data set [6] lay in the range of 100 to 1000 µg/mL (≈ 285 to 2850 µM). For the same compound, the IC50 in data set [1] (Chlorocebus sabaeus, Vero) came to 15.4 ± 0.34 µM; in data set [2] (Homo sapiens), 95.5 ± 7.19 µM; in data set [3] (setting [7]) it was 7.86 ± 1.05 µM; in data set [3] (Homo sapiens, MCF7, same value in µg/mL, read-out: IC50 MCF7), 2.75 µg/mL.
Turning to `COc1cc(/C=C2\CCC/C(=C\c3ccc(F)cc3)C2=O)ccc1O` [Compound 1c, (2E,6E)-2-[(4-hydroxy-3-methoxyphenyl)methylidene]-6-[(4-fluorophenyl)methylidene] cyclohexan-1-one], in data set [5], the LC50 at 24 h turned out to be 177 µM. Moreover, in data set [6], the LC50 lay within 30 to 100 µg/mL (≈ 88.7 to 296 µM). For the same compound, the IC50 stood at 13.4 ± 0.39 µM in data set [1] (Chlorocebus sabaeus, Vero); 49.1 ± 1.17 µM in data set [2] (Homo sapiens); 10.9 ± 0.79 µM in data set [3] (setting [7]).
In the same order, the values of `COc1cc(/C=C2\CCC/C(=C\c3ccc(Cl)cc3)C2=O)ccc1O` [Compound 1d, (2E,6E)-2-[(4-hydroxy-3-methoxyphenyl)methylidene]-6-[(4-chlorophenyl)methylidene] cyclohexan-1-one] are 204 µM, 30 to 100 µg/mL (≈ 84.5 to 282 µM), 14.1 ± 0.18 µM, 55.6 ± 1.49 µM and 35.9 ± 4.57 µM.
On to `COc1cc(/C=C2\CCC/C(=C\c3ccc(C)cc3)C2=O)ccc1O` [Compound 1e, (2E,6E)-2-[(4-hydroxy-3-methoxyphenyl)methylidene]-6-[(4-methylphenyl)methylidene] cyclohexan-1-one], for which, in data set [5], the LC50 at 24 h worked out at 78.7 µM. In addition, in data set [6], the LC50 was under 30 µg/mL. For the same compound, the IC50 was 16.1 ± 0.18 µM in data set [1] (Chlorocebus sabaeus, Vero); 61.2 ± 2.86 µM in data set [2] (Homo sapiens); 10.4 ± 0.36 µM in data set [3] (setting [7]).
Turning to `CCN(CC)Cc1cc(/C=C2\CCC/C(=C\c3ccccc3)C2=O)cc(OC)c1O` [Compound 2a, (2E,6E)-2-({3-[(diethylamino)methyl]-4-hydroxy-5-methoxyphenyl}methylidene)-6-(phenylmethylidene)cyclohexan-1-one], the LC50 at 24 h in data set [5] came to 921 µM. Besides, the LC50 in data set [6] fell in the range of 100 to 1000 µg/mL (≈ 247 to 2470 µM). Further, the IC50 in data set [1] (Chlorocebus sabaeus, Vero) was found to be 4.14 ± 0.21 µM; in data set [2] (Homo sapiens), 46.6 ± 1.54 µM.
The compound `CCN(CC)Cc1cc(/C=C2\CCC/C(=C\c3ccc(OC)cc3)C2=O)cc(OC)c1O` [Compound 2b, (2E,6E)-2-({3-[(diethylamino)methyl]-4-hydroxy-5-methoxyphenyl}methylidene)-6-[(4-methoxyphenyl)methylidene]cyclohexan-1-one] registered an LC50 at 24 h in data set [5] of 80.2 µM. The LC50 in data set [6] lay in the range of 30 to 100 µg/mL (≈ 68.9 to 230 µM). Further, the IC50 in data set [1] (Chlorocebus sabaeus, Vero) came to 7.29 ± 0.12 µM; in data set [2] (Homo sapiens), 69.3 ± 3.17 µM.
With `CCN(CC)Cc1cc(/C=C2\CCC/C(=C\c3ccc(F)cc3)C2=O)cc(OC)c1O` [Compound 2c, (2E,6E)-2-({3-[(diethylamino)methyl]-4-hydroxy-5-methoxyphenyl}methylidene)-6-[(4-fluorophenyl)methylidene]cyclohexan-1-one], the LC50 at 24 h in data set [5] was 88.4 µM. The LC50 in data set [6] was 30 to 100 µg/mL (≈ 70.8 to 236 µM). For the same compound, the IC50 was 4.23 ± 0.32 µM in data set [1] (Chlorocebus sabaeus, Vero) and 41.1 ± 0.16 µM in data set [2] (Homo sapiens).
The like results for `CCN(CC)Cc1cc(/C=C2\CCC/C(=C\c3ccc(Cl)cc3)C2=O)cc(OC)c1O` [Compound 2d, (2E,6E)-2-({3-[(diethylamino)methyl]-4-hydroxy-5-methoxyphenyl}methylidene)-6-[(4-chlorophenyl)methylidene]cyclohexan-1-one] were, in that order, 29.8 µM, under 30 µg/mL, 3.94 ± 0.07 µM and 40.6 ± 0.98 µM.
Take `CCN(CC)Cc1cc(/C=C2\CCC/C(=C\c3ccc(C)cc3)C2=O)cc(OC)c1O` [Compound 2e, (2E,6E)-2-({3-[(diethylamino)methyl]-4-hydroxy-5-methoxyphenyl}methylidene)-6-[(4-methylphenyl)methylidene]cyclohexan-1-one]: the LC50 at 24 h in data set [5] came to 1700 µM. For the same compound, in data set [6], the LC50 lay within 100 to 1000 µg/mL (≈ 238 to 2380 µM). For the same compound, the IC50 in data set [1] (Chlorocebus sabaeus, Vero) is 15.02 ± 0.14 µM; in data set [2] (Homo sapiens), 76.6 ± 4.27 µM; in data set [3] (setting [7]) it was 14.6 ± 1.96 µM.
For `COc1cc(/C=C/C(=O)CC(=O)/C=C/c2ccc(O)c(OC)c2)ccc1O` [Curcumin], the IC50 in data set [1] (Chlorocebus sabaeus, Vero) turned out to be 31.4 ± 0.41 µM; in data set [3] (setting [7]), 10.5 ± 1.1 µM.
For `COc1cccc2c1C(=O)c1c(O)c3c(c(O)c1C2=O)C[C@@](O)(C(=O)CO)C[C@@H]3O[C@H]1C[C@H](N)[C@H](O)[C@H](C)O1` [Doxorubicin, reference compound], the IC50 in data set [3] (setting [7]) is under 2.94 µM.

These data come from publication PMC6027665, “Synthesis and Cytotoxicity Evaluation of Novel Asymmetrical Mono-Carbonyl Analogs of Curcumin (AMACs) against Vero, HeLa, and MCF7 Cell Lines” (Scientia Pharmaceutica, 2018).
